Source: patent publication US20240358734A1, “DISCOVERY OF NOVEL TRPV1 CHANNEL BLOCKERS BY HIGH-THROUGHPUT SCREENING OF MARINE NATURAL PRODUCTS” (The Hong Kong University of Science and Technology, priority 2023, published 2024)
“Also recorded” adds a separate entry of the source.

Key:
human TRPV1 = molecular target: T1, human TRPV1 (Homo sapiens, UniProt Q8NER1); test: High-throughput FM4-64 dye-uptake assay in HEK293 cells transfected with hTRPV1-pIRES-eGFP; type: cell-based; conditions: for inhibitory effect on TRPV1 (relative n2/n1 ratio compared to vehicle control): screening, 5 μM FM4-64 dye and 100 μg/ml test compounds for 3 minutes, vs DMSO; for IC50: 1 μM capsaicin, 5 μM FM4-64, 3-minute incubation, cell-based system; for mean n2/n1 ratio: HEK293 cells transfected with human TRPV1, 96-well plate, groups incubated with drug, compared to capsaicin alone
T1 construct: expressed in transfected cells; host or cells: HEK293 (HEK293T) cells
Method: To screen potential modulators of TRPV1, a high-throughput screening system based on FM4-64 dye uptake was established using HEK293 cells transfected with hTRPV1-pIRES-eGFP and cultured in 96-well plates. The cells are incubation with 5 μM FM4-64 dye and 100 μg/ml test compounds for 3 minutes, washed, imaged using Zeiss Celldiscoverer 7, and analyzed using Image J (FIG. 2A). The number of GFP positive cells which is an indicator of the number of TRPV1 expressed cells, is calculated as n1 and the number of cells which are both GFP positive and dye uptake positive is calculated as n2 (FIG. 2B). The ratio (n2/n1) is a functional indicator of TRPV1 channel activity.
The performance of cC and cF with capsaicin and capsazepine, with HEK293 cells transfected with human TRPV1 and cultured on a 96-well plate are compared by the n2/n1 ratio of the groups incubated with cC and cF to those incubated with capsaicin alone and capsazepine (FIG. 3B).
The assay involves mixing 1 μM of capsaicin with varying concentrations of cC and 5 μM of FM4-64, and the mixture is added to each well for a 3-minute incubation.
Transfected HEK293 cells in a 96-well plate were divided into 8 groups, each containing 12 wells. 10-11 wells of each group were set as experimental groups in which cells were incubated with compound mixtures. 1-2 wells of each group were set as control groups in which cells were incubated with control solution A or B. One group was operated simultaneously to reduce the difference between wells. Cells in DMEM were washed with CaCl2-HBSS buffer once to remove the remnant medium. Subsequently, cells were incubated with the compound mixture or control solution for 2-3 min at RT. After FM4-64 incubation, cells were washed with CaCl2-HBSS buffer thrice to remove FM4-64 residuals. A group of cells was subjected to Zeiss Celldiscoverer 7 for fluorescent imaging.
To separate GFP and FM4-64 fluorescent dye, we used an LED light source at 470 nm to excite the GFP channel and light at 567 nm to excite the FM4-64 channel. 5× objective (Plan Apo, dry, autocorrect, NA 0.35), Orca camera (Orca Flash 4.0 v3), CO2 Module S1 incubation system, and Zenblue software were used for image recording. Each image comprises a GFP channel, FM4-64 channel, and bright field channel. And 4 non-overlapping images were taken for each well using the Tile function at Zenblue.
All images were analysed with ImageJ software. The same threshold would be applied to all the images in the same experiment group to select GFP-positive and dye uptake-positive cells. Cell number was calculated by the “Analyze particle” function in ImageJ. GFP-positive and dye uptake-positive cells were selected using the “AND” function in the image calculator. The number of GFP-positive cells (TRPV1 expressed cells) would be calculated as N1, and the number of cells that are both GFP positive and dye uptake positive would be calculated as N2. The ratio of […] represents the percentage of TRPV1 expressed cells that uptake FM4-64 fluorescent dye and would be used to analyse TRPV1's function.

TRPV1 channel (hTRPV1) = molecular target: T2, TRPV1 channel (hTRPV1) (Homo sapiens, UniProt Q8NER1); test: Excised inside-out patch-clamp of 3T3 cells transfected with hTRPV1-IRES-EGFP; type: cell-based; conditions: for inhibition of TRPV1 channels in patch-clamp macroscopic current: 10 nM capsaicin activation followed by 20 μM drug
T2 construct: expressed in transfected cells; host or cells: 3T3 cells
From the text: A cell-based high-throughput drug screening method identifies potential TRPV1 inhibitors using the FM4-64 dye-uptake assay though the assay cannot conclusively distinguish the specific mechanism of blockage as numerous factors, such as other channels, pinocytosis, and drug-induced membrane potential alteration via pore-forming, can contribute to changes in FM4-64 dye uptake. A high-resolution patch clamp assays using an excised inside-out recording configuration allows investigation of the potential inhibitory effect of cC and cF on TRPV1, where changes in the patch-clamp macroscopic current before and after drug application indicates drug effectiveness.
3T3 cells were recorded using excised inside-out voltage clamp. Patch electrodes with a resistance of 4 MΩ±1.1 MΩ were pulled on a glass pipette puller (DMZ Zeitz-Puller). 3T3 cells were first transferred to a patch container to minimize the use of drugs and transfected with hTRPV1-IRES-EGFP. Immediately before assay, the cell medium was changed to PBS as well as the pipette medium. The dish was connected to the ground electrode via the salt bridge. Glass pipette filled with PBS was inserted into the patch electrode. A positive pressure of around 40 mmHg was applied to the pipette and soaked into the cell medium. The offset was tuned to near 0 pA when the holding potential was 0 mV. Pipette was moved to the cell, showing green-fluorescent and barely attached to the cell membrane. Then, removing the positive pressure in the pipette and changing the holding potential to −80 mV, forming a tight seal between the cell membrane and the pipette. The seal resistance should be >=1GQ. The sealed membrane was excised to form a patch in an inside-out configuration. The recording started with a positive holding potential.
The patch was activated by 10 nM of capsaicin to activate TRPV1 channels fully. After full activation, 20 μM of drugs (cC) was applied to test for their ability of TRPV1 inhibition. […]
Traces were collected with the pClamp10 software suite, and the patch-clamp macroscopic current was recorded. […]

[1] = system: capsaicin-/TRPV1-induced pain sensation; test: Capsaicin-induced pain-sensation assay (paw-licking) in mice; type: in vivo, mice (C57B/6J); conditions: for mean licking time: drug mixed with capsaicin injected into right hind paw, 5 minutes observation
Method: The total time spent paw-licking, a typical nociception behaviour in mice, was recorded as an indicator of TRPV1 activation and compared with a positive control group injected with capsaicin alone. The potency of the injected drugs is related to the reduction of licking time.
The mice used were 4-6 weeks old C57B/6J provided by APCF in HKUST. All animal procedures were approved by the University Committee on Research Practices of the Hong Kong University of Science and Technology (Ethics protocol number: 2016074).
Capsaicin-induced pain-sensation assays in mice were performed where 10 μL of capsaicin (300 μM) or solvent control was injected into the top of the hind paw by using a fine (30-G) needle; capsaicin was dissolved in 0.3% ethanol and 3% (v/v) dimethyl sulfoxide (DMSO). The mice were wrapped gently in the investigator's hand and maintained on their back, with their snout pointing toward the small finger of the investigator; in this position, the mice remained unagitated during the injection. Mouse behavior was recorded using a digital camera (GoPro5).
The observation cage was made with the transparent large cage liner from APCF with bedding and food at the bottom. Mice were placed in the observation cage for 10 minutes at least 1 hour before the experiment was conducted to reduce the stress bought on by an unfamiliar environment. During the experiment, mice were captured by the left hand using the index finger and thumb to hold their neck. Then gradually pick up the mice and use the little finger to anchor its tail, such that its right hind paw will step on the ring finger or middle finger. Drugs were prepared in a 1.5 mL test tube. For the control group, 1 mM stock Capsaicin in DMSO is diluted to 100 μM using PBS. For the testing group, drugs originally dissolved in DMSO were diluted to the desired concentration in addition to capsaicin.
The injection was performed by shaking and spinning the drug-containing test tube for an even concentration of drug. A BD Ultra-fine 6 mm needle was used to suck out the 10 μL of drug from the needle. After removing excess air bubbles, 10 μL of the drug was injected into the captured mice's back of the right hind paw. The needle was removed slowly to inhibit blood and drug from leaking from the wound. After injection, mice were placed in the observation cage for 5 minutes to record the pain behavior. Video was filmed using a camera with the configuration of HD 30 fps. The environmental noise, light, and temperature are constant throughout the record. The mice's behavior was identified by experienced individuals who mapped pain behavior in seconds throughout the 5 minutes.

T2 sequence (Q8NER1 whole entry): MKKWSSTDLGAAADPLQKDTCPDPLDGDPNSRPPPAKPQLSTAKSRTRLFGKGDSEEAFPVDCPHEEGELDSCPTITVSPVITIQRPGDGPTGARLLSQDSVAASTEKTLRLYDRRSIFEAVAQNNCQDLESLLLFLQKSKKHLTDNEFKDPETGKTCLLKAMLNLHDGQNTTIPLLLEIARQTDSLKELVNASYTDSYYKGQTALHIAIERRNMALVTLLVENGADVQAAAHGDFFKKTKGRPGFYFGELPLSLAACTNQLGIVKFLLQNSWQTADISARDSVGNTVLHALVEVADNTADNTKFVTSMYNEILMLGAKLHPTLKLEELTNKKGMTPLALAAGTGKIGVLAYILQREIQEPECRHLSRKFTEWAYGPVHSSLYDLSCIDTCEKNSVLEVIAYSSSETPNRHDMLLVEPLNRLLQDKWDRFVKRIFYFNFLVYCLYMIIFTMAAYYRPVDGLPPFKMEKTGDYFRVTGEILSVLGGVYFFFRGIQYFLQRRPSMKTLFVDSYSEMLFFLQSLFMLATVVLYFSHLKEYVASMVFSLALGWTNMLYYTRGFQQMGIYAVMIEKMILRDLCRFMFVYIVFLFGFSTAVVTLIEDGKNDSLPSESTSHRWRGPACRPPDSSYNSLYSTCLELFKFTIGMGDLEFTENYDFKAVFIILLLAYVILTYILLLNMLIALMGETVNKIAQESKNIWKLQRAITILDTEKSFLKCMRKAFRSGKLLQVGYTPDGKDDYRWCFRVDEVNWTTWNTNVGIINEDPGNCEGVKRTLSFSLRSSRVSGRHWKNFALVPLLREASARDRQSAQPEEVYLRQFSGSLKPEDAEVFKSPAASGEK
T1 sequence (Q8NER1 whole entry): as above

Molecule	inhibitory effect on TRPV1 (relative n2/n1 ratio compared to vehicle control) (human TRPV1)	inhibition of TRPV1 channels in patch-clamp macroscopic current (TRPV1 channel (hTRPV1))	IC50 (human TRPV1) [nM]	mean n2/n1 ratio (human TRPV1)	mean licking time [1] [s]	further results
CC(=O)Cc1cc2c(c(O)c1C(=O)O)-c1c(c(O)c3oc4c(O[C@@H]5OC(C(=O)O)=C[C@H](O)[C@H]5O)cccc4c(=O)c3c1O)CC2 [cA, chrexanthomycin A]	inhibitory effects on TRPV1					
COc1c2c(c(O)c3c(=O)c4cccc(O[C@@H]5OC(C(=O)O)=C[C@H](O)[C@H]5O)c4oc13)-c1c(cc(CC(C)=O)c(C(=O)O)c1O)CC2 [cB, chrexanthomycin B]	inhibitory effects on TRPV1					
C[C@@]1(O)Cc2cc3c(c(O)c2C(=O)O1)-c1c(c(O)c(O)c2c(=O)c4cccc(O[C@@H]5OC(C(=O)O)=C[C@H](O)[C@H]5O)c4oc12)CC3 [cF, chrexanthomycin F]	inhibitory effects on TRPV1	effectively inhibit TRPV1 channels	> 2000	0.068		
COc1cc(CNC(=O)CCCC/C=C/C(C)C)ccc1O [capsaicin, reference compound]						mean licking time, capsaicin alone group ([1]; capsaicin alone injected into right hind paw (positive control)): over 50 seconds; mean n2/n1 ratio, capsaicin group (human TRPV1; capsaicin alone, HEK293 cells transfected with human TRPV1): 0.254
Oc1cc2c(cc1O)CN(C(=S)NCCc1ccc(Cl)cc1)CCC2 [capsazepine, reference compound]				0.0667	18	
chrexanthomycin C [cC]	inhibitory effects on TRPV1; also recorded: lowest relative n2/n1 ratio	effectively inhibit TRPV1 channels	750 to 1000	0.0307	19	efficacy in blocking capsaicin-induced pain sensation relative to capsazepine ([1]; mouse model, ANOVA with post hoc test): as effective as capsazepine; average relative macroscopic current after drug addition (TRPV1 channel (hTRPV1); fully capsaicin-activated state (10 nM capsaicin), 20 μM drug, inside-out patch): 0.285
